The text below walks through data of patent US20210395256A1, “TYROSINE KINASE INHIBITORS, COMPOSITIONS AND METHODS THERE OF” (Betta Pharmaceuticals Co., Ltd., priority 2018, published 2021).

Data set [1] addresses TrkA kinase (Homo sapiens, UniProt P04629). The data set can be described thus: TrkA kinase assay (mobility shift assay). Conditions: numeric values; read-out: Trk A Kinase IC50. In kind it is biochemical. In a few lines:
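Ten-point compound series was preincubated 10 min at room temperature with TrkA, then FAM-peptide plus ATP added in HEPES pH 7.5/Brij-35 buffer and reacted at 28 °C before EDTA quench.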

A short description of data set [2]: Plasma protein binding (equilibrium dialysis), human. In kind it is in vitro ADME. The note with it: pH 7.4, human plasma, 1 μM, 6 hours dialysis; for fraction unbound at 6 h, 1 μM: read-out: Mean % Bound Human (converted). The method, then: (§1) Example 204 Plasma Protein Binding Measurements
(§2) The plasma protein binding was measured as the following procedure.
(§3) 1) Preparation of 100 mM sodium phosphate and 150 mM NaCl buffer (PBS)
(§4) A basic solution was prepared by dissolving 14.2 g/L Na2HPO4 and 8.77 g/L NaCl in deionized water and the solution could be stored at 4° C. for up to 7 days. An acidic solution was prepared by dissolving 12.0 g/L NaH2PO4 and 8.77 g/L NaCl in deionized water and the solution could be stored at 4° C. for up to 7 days. The basic solution was titrated with the acidic solution to pH 7.4 and store at 4° C. for up to 7 days. pH was checked on the day of experiment and was adjusted if outside specification of 7.4±0.1.
(§5) Frozen plasma was thawed immediately at room temperature.
(§6) The plasma was centrifuged at 3,220 g for 10 minutes to remove clots and supernatant was collected into a fresh tube. The pH of the plasma was checked and recorded.
(§7) Note: a). Only use plasma that has been thawed no more than twice since arrival. b). Only use plasma within the range of pH 7 to pH 8.
(§8) 3) Preparation of working solutions
(§9) The working solutions of test compounds and control compound ketoconazole were prepared in DMSO at the concentration of 200 μM. And then 3 μL of working solution was removed to mix with 597 μL of human, rat or mouse plasma to achieve a final concentration of 1 μM (0.5% DMSO). Plasma samples were vortexed thoroughly.
(§10) 4) Preparation of dialysis membranes
(§11) The dialysis membranes were soaked in ultrapure water for 60 minutes to separate strips, then in 20% ethanol for 20 minutes, finally in dialysis buffer for 20 minutes.
(§12) 5) Procedure for equilibrium dialysis
(§13) The dialysis apparatus was assembled according to the manufacturer's instruction. Each cell was filled with 120 μL of plasma sample and dialyzed against equal volume of dialysis buffer (PBS). The assay was performed in duplicate. The dialysis plate was sealed and incubated in an incubator at 37° C. with 5% CO2 at 100 rpm for 6 hours. At the end of incubation, seal was removed and 50 μL of samples from both buffer and plasma chambers were transferred to wells of a 96-well plate.
(§14) 6) Procedure for sample analysis
(§15) 50 μL of blank plasma was added to each buffer samples and an equal volume of PBS was supplemented to the collected plasma sample. 300 μL of room temperature quench solution (acetonitrile containing internal standards (1S, 100 nM Alprazolam, 500 nM Labetalol and 2 μM Ketoprofen)) was added to precipitate protein. Samples in plate were vortexed for 5 minutes and centrifuged at 3,220 g for 30 minutes at 4° C. And then 100 μL of the supernatant was transferred to a new 96-well plate with 100 μL or 200 μL water (depends on the LC-MS signal response and peak shape) for LC-MS/MS analysis.
(§16) Calculate the percentages of test compound and control compound bound as follows:
(§17) % Free=(Peak Area Ratiobuffer chamber/Peak Area Ratioplasma chamber)*100
(§18) % Recovery=(Peak Area Ratiobuffer chamber+Peak Area Ratioplasma chamber)/Peak Area Ratio total sample*100
(§19) Peak Area Ratiobuffer chamber means the conc for free fraction
(§20) Peak Area Ratioplasma chamber means the conc for both free and bound fraction
(§21) Peak Area Ratiototal sample means the conc for starting sample before incubation

Data set [3] can be described thus: Plasma protein binding (equilibrium dialysis), rat. In kind it is in vitro ADME. Conditions: pH 7.4, 6 hours dialysis; for fraction unbound at 6 h, 1 μM: read-out: Mean % Bound Rat (converted). The method, then:
as §1, §2, §3, §4, §5, §6, §7, §8, §9, §10, §11, §12, §13, §14, §15, §16, §17, §18, §19, §20, §21
(In equilibrium dialysis only unbound substance equilibrates across the membrane.)

Data set [4] in a line: Plasma protein binding (equilibrium dialysis), mouse. It counts as in vitro ADME. The note with it: pH 7.4, 6 hours dialysis; for fraction unbound at 6 h, 1 μM: read-out: Mean % Bound Mouse (converted). The method, then: as §1, §2, §3, §4, §5, §6, §7, §8, §9, §10, §11, §12, §13, §14, §15, §16, §17, §18, §19, §20, §21
In data set [5] the target is T1, Ba/F3-TPM3-NTRK1 (Homo sapiens, UniProt P04629).
T1 construct: expressed in transfected cells; host or cells: Ba/F3; the other entry of the earlier key: TPM3 (P06753, Tropomyosin alpha-3 chain)
T1 sequence (P04629 510-796 limits assumed): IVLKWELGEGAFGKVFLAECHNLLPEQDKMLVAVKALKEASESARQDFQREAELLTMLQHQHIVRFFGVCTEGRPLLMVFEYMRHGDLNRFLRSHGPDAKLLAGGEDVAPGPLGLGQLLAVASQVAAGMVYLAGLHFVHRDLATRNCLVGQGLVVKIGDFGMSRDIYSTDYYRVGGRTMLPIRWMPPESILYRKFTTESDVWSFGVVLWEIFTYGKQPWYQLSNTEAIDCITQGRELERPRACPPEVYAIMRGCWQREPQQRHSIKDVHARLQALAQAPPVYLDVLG
The data set can be described thus: Ba/F3-TPM3-NTRK1 cells proliferation assay. The note with it: 72 h, CellTiter Glo. It counts as cell-based. The method, then: Example 202 Ba/F3-TPM3-NTRK1 and Ba/F3-ETV6-NTRK3 cells proliferation assay
Cell line: Ba/F3 cells with TPM3-NTRK1 or ETV6-NTRK3 fusion mutation gene stably overexpressed named Ba/F3-TPM3-NTRK1 and Ba/F3-ETV6-NTRK3.
RPMI 1640 and 10% FBS and 1% PS and 2 ug/mL puromycin.
b) Collect cell to a 15 mL centrifuged tube, centrifuge at 1000 rpm for 5 min. Discard the supernatant, count, and make the cell density at 1.49×10^4 cells/mL, then place it in a 37° C., 5% CO2 incubator.
a) The test compound (20 mM stock solution) was diluted to 60 μM with 100% DMSO as starting concentration then 3-fold serial diluted with “9+0” concentrations. in a 96-well dilution plate (Thermo, Cat. No. 249944);
b) The above compound solution was diluted 1:20 times with culture medium to prepare a 10 fold working solution;
a) Take cells in log phase growth, centrifuge at 1000 rpm for 5 min, then resuspend the cells with culture medium, then count cells;
b) Cells were seeded to 96-well cell culture plate with density at 2000 cells/well;
a) Compounds prepared at step 2 were added to cell plate with 15 μL per well, the final concentrations were 300, 100, 33.33, 11.11, 3.70, 1.23, 0.41, 0.14, 0.05 and 0 nM, and the final concentration of DMSO was 0.5%. The blank control well was a culture medium (0.5% DMSO);
c) The cells were incubated for an additional 72 h in the incubator.
a) Remove the 96-well cell culture plate and add 50 μl of CTG reagent (CellTiter Glo kit, promega, Cat #G7573).
b) Plate was shaked for 2 min and then let it cool for 30 min at room temperature.
c) The Luminescence signal value was read using a PerkinElmer reader.
Experimental Data Analysis
Data were analyzed using GraphPad Prism 6.0 software to obtain a fitted curve of compound activity.
Fit the Compound IC50 from non-linear regression equation:
Y=Bottom+(Top-Bottom)/(1+10^((Log IC50-X)×HillSlope));
X: The log of the concentration of the compound; Y: Luminescence value.
For orientation: Cellular ATP, detected with luciferase, serves as a proxy for viable cell number.

The target in data set [6] is NTRK1-G595R (Homo sapiens, UniProt P04629, G595R). The data set is described as follows: NTRK1-G595R cell proliferation assay (Table 13). In kind it is cell-based.
Sequence of NTRK1-G595R (P04629 33-796 G595R): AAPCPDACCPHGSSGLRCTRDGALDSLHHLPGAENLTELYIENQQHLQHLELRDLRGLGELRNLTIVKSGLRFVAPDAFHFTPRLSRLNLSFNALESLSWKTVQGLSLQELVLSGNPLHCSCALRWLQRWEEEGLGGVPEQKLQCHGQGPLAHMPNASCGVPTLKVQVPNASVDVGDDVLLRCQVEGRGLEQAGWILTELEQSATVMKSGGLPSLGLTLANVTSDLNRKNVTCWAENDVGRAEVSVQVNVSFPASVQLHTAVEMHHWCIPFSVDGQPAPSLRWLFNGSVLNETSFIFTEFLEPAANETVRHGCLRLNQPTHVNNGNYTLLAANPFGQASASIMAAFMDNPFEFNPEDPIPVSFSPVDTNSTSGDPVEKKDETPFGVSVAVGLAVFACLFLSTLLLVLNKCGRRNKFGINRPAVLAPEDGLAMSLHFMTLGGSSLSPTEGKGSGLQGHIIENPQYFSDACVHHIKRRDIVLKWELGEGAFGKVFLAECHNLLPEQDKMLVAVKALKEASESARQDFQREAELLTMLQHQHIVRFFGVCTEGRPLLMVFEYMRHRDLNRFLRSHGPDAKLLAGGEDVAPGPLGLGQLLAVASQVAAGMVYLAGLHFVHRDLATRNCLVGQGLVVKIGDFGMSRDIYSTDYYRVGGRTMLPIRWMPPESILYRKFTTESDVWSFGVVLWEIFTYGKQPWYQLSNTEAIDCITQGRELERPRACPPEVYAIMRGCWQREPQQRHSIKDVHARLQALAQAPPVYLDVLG
A short description of data set [7]: Liver microsomes metabolic stability assay, human. Conditions: human liver microsomes 0.5 mg/mL, 37° C. It counts as in vitro ADME. The method, then:
(§22) Example 203 Liver Microsomes Metabolic Stability Assay
(§23) Pooled human liver microsomes (Cat. 452117) were purchased from Corning. Pooled male rat liver microsomes (Cat. R1000) and pooled male mouse liver microsomes (Cat. M1000) were purchased from XENOTECH. Microsomes were stored at −80° C.
(§24) 1) Make a master solution containing phosphate buffer, ultra-pure H2O and MgCl2 solution according to Table 14.
(§25) 2) Two separated experiments were performed as follows.
(§26) a) With NADPH: 10 μL of 20 mg/mL liver microsomes and 40 μL of 10 mM NADPH were added to the incubations. The final concentrations of microsomes and NADPH were 0.5 mg/mL and 1 mM, respectively.
(§27) b) Without NADPH: 10 μL of 20 mg/mL liver microsomes and 40 μL of ultra-pure H2O were added to the incubations. The final concentration of microsomes was 0.5 mg/mL.
(§28) 3) The reaction was started with the addition of 4 μL test compounds solutions or control compound solution (verapamil) at the final concentration of 2 μM and carried out at 37° C.
(§29) 4) Aliquots of 50 μL were taken from the reaction solution at 0, 15, 30, 45 and 60 min. The reaction solutions were stopped by the addition of 4 volumes of cold acetonitrile with 1S (100 nM alprazolam, 200 nM caffeine, 200 nM labetalol and 2 μM ketoprofen). Samples were centrifuged at 3,220 g for 40 minutes. Aliquot of 100 μL of the supernatant was mixed with 100 μL of ultra-pure H2O and then used for LC-MS/MS analysis. All experiments were performed in duplicate.
(§30) The slope value, k, was determined by linear regression of the natural logarithm of the remaining percentage of the parent drug vs. incubation time curve.
(§31) The in vitro half-life (in vitro t1/2) was determined from the slope value:
(§32) Conversion of the in vitro t1/2 (in min) into the in vitro intrinsic clearance (in vitro CLint, in μL/min/mg proteins) was done using the following equation (mean of duplicate determinations): […]
(§33) The control compound (verapamil) was included in the assay. Any value of the compounds that was not within the specified limits will be rejected and the experiment will be repeated.
In general terms: Microsomes from liver hold many membrane-bound enzymes, among them those of drug oxidation.

Data set [8] can be described thus: Liver microsomes metabolic stability assay, rat. It counts as in vitro ADME. The note with it: male, rat liver microsomes 0.5 mg/mL, 37° C. The method, then: as §22, §23, §24, §25, §26, §27, §28, §29, §30, §31, §32, §33
A short description of data set [9]: Liver microsomes metabolic stability assay, mouse. It counts as in vitro ADME. Conditions: male, mouse liver microsomes 0.5 mg/mL, 37° C. As to the method:
as §22, §23, §24, §25, §26, §27, §28, §29, §30, §31, §32, §33

Sequence of TrkA kinase (P04629 33-796): as the sequence (P04629 33-796 G595R) above, with R563G counted along it

Take `NC1(c2nnc(-c3cnn4ccc(N5CCC[C@@H]5c5cc(F)ccc5F)nc34)[nH]2)CCC1` [Compound 24, (R)-1-(5-(5-(2-(2,5-difluorophenyl)pyrrolidin-1-yl)pyrazolo[1,5-a]pyrimidin-3-yl)-4H-1,2,4-triazol-3-yl)cyclobutan-1-amine]: the IC50 (in general, the point on the concentration scale where inhibition reaches its midpoint) in data set [1] is 11.8 nM. Moreover, the figures for the recovery at 6 h, 1 μM in data set [2], in data set [3] and in data set [4] were 85.9%, 82.5% and 86.5%, respectively. Further, the fraction unbound at 6 h, 1 μM in data set [2] is 0.126; in [3], 0.164; in data set [4], 0.0817.
Take `C[C@@H](O)c1nnc(-c2cnn3ccc(N4CCC[C@@H]4c4cc(F)ccc4F)nc23)[nH]1` [Compound 34, (R)-1-(5-(5-((R)-2-(2,5-difluorophenyl)pyrrolidin-1-yl)pyrazolo[1,5-a]pyrimidin-3-yl)-4H-1,2,4-triazol-3-yl)ethan-1-ol]: the IC50 amounted to 0.71 nM in [1] and 3.33 nM in [5]. The recovery at 6 h, 1 μM in data set [2] was 91.7%; in [3], 92.4%; in data set [4], 98.6%. Further, the fraction unbound at 6 h, 1 μM in [2] is 0.0868; in [3] it was 0.109; in data set [4], 0.0918.
Take `OCc1cc2nc(-c3cnn4ccc(N5CCC[C@@H]5c5cc(F)ccc5F)nc34)oc2cc1F` [Compound 94, (R)-(2-(5-(2-(2,5-difluorophenyl)pyrrolidin-1-yl)pyrazolo[1,5-a]pyrimidin-3-yl)-6-fluorobenzo[d]oxazol-5-yl)methanol]: the results for the IC50 in [1], in data set [5] and in [6] were 0.79 nM, 1.38 nM and 62.9 nM, respectively.
As to `COCCOc1cc2nc(-c3cnn4ccc(N5CCC[C@@H]5c5cc(F)ccc5F)nc34)[nH]c2cc1OCCOC` [Compound 101, (R)-3-(5,6-bis(2-methoxyethoxy)-1H-benzo[d]imidazol-2-yl)-5-(2-(2,5-difluorophenyl)pyrrolidin-1-yl)pyrazolo[1,5-a]pyrimidine], the values for the IC50 in data set [1], in data set [5] and in data set [6] were 0.4 nM, 0.28 nM and 165 nM, respectively. The intrinsic metabolic clearance (microsomal CLint) (in general, the rate of metabolic loss divided by the concentration) at 2 μM in data set [7] was 49.4 µL/min/mg; in [8], 105 µL/min/mg; in data set [9], 103 µL/min/mg. In addition, the half-life at 2 μM in data set [7] (read-out: t1/2 Human) was determined as 28.1 min; in data set [8] (read-out: t1/2 Rat) it was 13.2 min; in [9] (read-out: t1/2 Mouse), 13.5 min.
Regarding `CN(C)c1cc2[nH]c(-c3cnn4ccc(N5CCC[C@@H]5c5cc(F)ccc5F)nc34)nc2cc1C#N` [Compound 144, (R)-2-(5-(2-(2,5-difluorophenyl)pyrrolidin-1-yl)pyrazolo[1,5-a]pyrimidin-3-yl)-6-(dimethylamino)-1H-benzo[d]imidazole-5-carbonitrile], the 50% inhibitory concentration (IC50) came to 1.1 nM in data set [1], 3.39 nM in [5] and 221 nM in data set [6].
As to `Fc1ccc(F)c([C@H]2CCCN2c2ccn3ncc(-c4nc5cc(CN6CCOCC6)ccc5[nH]4)c3n2)c1` [Compound 162, (R)-4-((2-(5-(2-(2,5-difluorophenyl)pyrrolidin-1-yl)pyrazolo[1,5-a]pyrimidin-3-yl)-1H-benzo[d]imidazol-5-yl)methyl)morpholine], the IC50 stood at 0.6 nM in data set [1], 1.33 nM in data set [5] and 119 nM in [6].
